For 30 compounds, IC50 and inhibition results are on record in patent publication US6632829B2, “Sulfonamides and derivatives thereof that modulate the activity of endothelin” (Texas Biotechnology Corp., priority 1996, dated 2003).

One assay has as its target T1, human ETB receptor (Homo sapiens, UniProt P24530).
T1 construct: expressed in transfected cells; host or cells: COS7 cells
T1 sequence (P24530 27-442): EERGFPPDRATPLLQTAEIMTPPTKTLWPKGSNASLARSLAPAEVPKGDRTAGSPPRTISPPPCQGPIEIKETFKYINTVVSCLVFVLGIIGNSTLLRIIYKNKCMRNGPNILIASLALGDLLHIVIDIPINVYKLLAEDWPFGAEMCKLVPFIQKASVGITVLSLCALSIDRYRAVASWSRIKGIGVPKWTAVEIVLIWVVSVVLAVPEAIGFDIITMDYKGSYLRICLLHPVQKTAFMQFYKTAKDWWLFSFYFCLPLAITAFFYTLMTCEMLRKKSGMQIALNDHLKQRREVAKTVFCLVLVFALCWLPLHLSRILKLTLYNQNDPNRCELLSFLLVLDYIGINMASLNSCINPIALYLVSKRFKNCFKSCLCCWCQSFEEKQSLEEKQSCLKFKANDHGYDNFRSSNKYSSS
In words: Endothelin binding inhibition, Binding Test #2: competition with 125I-ET-1 for ETB receptors on transfected COS7 cell membranes. Particulars: for inhibition at 100 µM: read-out: ETB % inhibition @ 100 μM, @ 100 μM, incubation at 24° C. A digest of the protocol: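 Membranes from COS7 cells transfected with human ETB receptor, prepared in HEPES pH 7.4 with aprotinin, MnCl2/DNase treatment at 37° C for 30 min. Test compounds compete with 125I-labeled ET-1 for receptor binding; membrane used at 1 μg/50 μL binding buffer.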

For another assay, the target named is T2, human ETA receptors (Homo sapiens, UniProt P25101).
T2 construct: endogenous in cells; host or cells: TE 671 cells (ATCC HTB 139), membrane preparation
T2 sequence (P25101 21-427): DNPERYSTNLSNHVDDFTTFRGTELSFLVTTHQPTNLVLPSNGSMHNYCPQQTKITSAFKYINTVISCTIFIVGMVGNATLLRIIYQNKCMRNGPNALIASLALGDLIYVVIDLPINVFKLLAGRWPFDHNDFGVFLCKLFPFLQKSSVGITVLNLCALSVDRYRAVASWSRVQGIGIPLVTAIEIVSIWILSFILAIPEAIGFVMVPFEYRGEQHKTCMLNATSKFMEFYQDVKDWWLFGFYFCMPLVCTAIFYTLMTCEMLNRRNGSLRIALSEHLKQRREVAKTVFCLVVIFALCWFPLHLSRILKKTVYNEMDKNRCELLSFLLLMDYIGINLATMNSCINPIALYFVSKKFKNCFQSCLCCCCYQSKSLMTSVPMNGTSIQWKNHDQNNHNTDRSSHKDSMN
In words: Endothelin binding inhibition, Binding Test #1: competition with 125I-ET-1 for ETA receptors on TE 671 cell membranes.

Where [1] appears, read: incubation at 24° C. (values marked †).
The mark [2] stands for this setting: incubation at 4° C. (values without †).

Where only a bound is given, the exact number is not on record here.

Regarding `Cc1cc(C)c(NC(=O)c2sccc2S(=O)(=O)Nc2onc(C)c2Cl)c(C)c1` [N-(4-chloro-3-methyl-5-isoxazolyl)-2-(2,4,6-trimethylphenylaminocarbonyl)thiophene-3-sulfonamide], the half-inhibitory concentration (IC50) (usually the concentration at which inhibition is half-maximal) was 11300 nM at human ETB receptor (setting [1]) and 1.6 nM at human ETA receptors (setting [1]).
Taken in the same sequence, the figures for “N-(4-chloro-3-methyl-5-isoxazolyl)-2-phenylbenzo[b]thiophene sulfonamide” were 46800 nM and 932 nM.
Regarding `Cc1noc(NS(=O)(=O)c2ccsc2C(=O)Oc2ccc3c(c2)OCO3)c1C` [N-(3,4-dimethyl-5-isoxazolyl)-2-{(3,4-(methylenedioxy)phenoxy]carbonyl}thiophene-3-sulfonamide], at human ETB receptor, the inhibition (usually the drop in the measured response relative to a control, in per cent) at 100 µM came to 30%. The half-inhibitory concentration (IC50) at human ETA receptors (setting [1]) turned out to be 3610 nM.
In the case of `Cc1noc(NS(=O)(=O)c2ccsc2C(=O)Nc2c(CC#N)cc3c(c2CC#N)OCO3)c1Cl` [N-(4-chloro-3-methyl-5-isoxazolyl)-2-[2-cyanomethyl-4,5-(methylenedioxy)-6-cyanomethyl]phenylaminocarbonylthiophene-3-sulfonamide], the IC50 at human ETB receptor (setting [1]) was found to be 25000 nM; on human ETA receptors (setting [1]), 3.8 nM.
In the case of `COc1ccccc1OC(=O)c1sccc1S(=O)(=O)Nc1onc(C)c1Br` [N-(4-bromo-3-methyl-5-isoxazolyl)-2-[(2-methoxylphenoxy)carbonyl]thiophene-3-sulfonamide], the inhibition at 100 µM on human ETB receptor stood at 29%. The compound further returned a half-maximal inhibitory concentration (IC50) at human ETA receptors (setting [1]) of 761 nM.
Regarding `CCc1ccc(-c2ccsc2S(=O)(=O)Nc2onc(C)c2Br)cc1` [N-(4-bromo-3-methyl-5-isoxazolyl)-3-(4-ethylphenyl)thiophene-2-sulfonamide], the figures for the IC50 on human ETB receptor (setting [1]) and on human ETA receptors (setting [2]) were 43900 nM and 184 nM, respectively.
Regarding “3-[N-(Benzo-2,1,3-thiadiazol-5-yl)aminosulfonyl]thiophene-2-carboxylic acid, 3-cyanomethyl-2,4,6-trimethylanilide”, the IC50 at human ETB receptor (setting [1]) was found to be 9550 nM; at human ETA receptors (setting [1]), 0.66 nM.
Taken in the same sequence, the figures for `COc1ccc(Cc2sc3ccccc3c2S(=O)(=O)Nc2onc(C)c2Br)cc1` [N-(4-bromo-3-methyl-5-isoxazolyl)-2-(4-methoxybenzyl)benzo[b]thiophene-3-sulfonamide] were 1500 nM and 51 nM.
Taken in the same sequence, the figures for `Cc1noc(NS(=O)(=O)c2c(-c3ccccc3C#N)sc3ccccc23)c1Cl` [N-(4-chloro-3-methyl-5-isoxazolyl)-2-[2-(cyano)phenyl]benzo[b]thiophene-3-sulfonamide] were 8820 nM and 6330 nM.
Take `Cc1cc2c(cc1CCc1ccsc1S(=O)(=O)Nc1onc(C)c1Br)OCO2` [N-(4-bromo-3-methyl-5-isoxazolyl)-3-[2-methyl-4,5-(methylenedioxy)phenethyl]thiophene-2-sulfonamide]: the results for the IC50 on human ETB receptor (setting [1]) and at human ETA receptors (setting [1]) were around 5000 nM and around 100 nM, respectively.
Taken in the same sequence, the figures for “N-(3,4-dimethyl-5-isoxazolyl)-2-(4-tolylacetylphenyl)thiophene-3-sulfonamide” were 29200 nM and 2.7 nM.
Taken in the same sequence, the figures for `Cc1noc(NS(=O)(=O)c2ccsc2C(=O)Nc2cc3c(cc2CC(=O)N(C)C)OCO3)c1Cl` [N-(4-chloro-3-methyl-5-isoxazolyl)-2-{2-[(dimethylamino)carbonylmethyl]-4,5-(methylenedioxy)phenylaminocarbonyl}thiophene-3-sulfonamide] were 13800 nM and 9 nM.
For `Cc1ccc(CCc2sccc2S(=O)(=O)Nc2onc(C)c2Br)c(C)c1` [N-(4-bromo-3-methyl-5-isoxazolyl)-2-(2,4-dimethylphenethyl)thiophene-3-sulfonamide], the half-maximal inhibitory concentration (IC50) at human ETB receptor (setting [1]) is 3480 nM; at human ETA receptors (setting [1]), 55.5 nM.
In the same order, the values of `Cc1ccc(C)c(CC(=O)c2sccc2S(=O)(=O)Nc2onc(C)c2Cl)c1` [N-(4-chloro-3-methyl-5-isoxazolyl)-2-(2,5-dimethylphenylacetyl)thiophene-3-sulfonamide] are 18000 nM and 7 nM.
In the same order, the values of `Cc1noc(NS(=O)(=O)c2ccsc2CC2(c3ccc4c(c3)OCO4)OCCO2)c1Cl` [N-(4-chloro-3-methyl-5-isoxazolyl)-2-[β,β-(ethylenedioxy)-3,4-(methylenedioxy)phenethyl]thiophene-3-sulfonamide] are 2090 nM and 128 nM.
In the same order, the values of `COc1cccc(OC(=O)c2sccc2S(=O)(=O)Nc2onc(C)c2Br)c1` [N-(4-bromo-3-methyl-5-isoxazolyl)-2-[(3-methoxylphenoxy)carbonyl]thiophene-3-sulfonamide] are 90000 nM and 790 nM.
With `Cc1cc(C)c(CCc2sccc2S(=O)(=O)Nc2onc(C)c2Br)c(C)c1` [N-(4-bromo-3-methyl-5-isoxazolyl)-2-(2,4,6-trimethylphenethyl)thiophene-3-sulfonamide], the concentration for half-maximal inhibition (IC50) at human ETB receptor (setting [1]) was found to be 1230 nM; on human ETA receptors (setting [1]), 41.7 nM.
Taken in the same sequence, the figures for `Cc1noc(NS(=O)(=O)c2ccsc2C(=O)Nc2cccc(C(=O)O)c2)c1Br` [N-(4-bromo-3-methyl-5-isoxazolyl)-2-[(3-carboxyphenyl)aminocarbonyl]thiophene-3-sulfonamide] were above 100000 nM and 62 nM.
In the same order, the values of `Cc1noc(NS(=O)(=O)c2c(-c3ccc4c(c3)OCO4)sc3ccccc23)c1Cl` [N-(4-chloro-3-methyl-5-isoxazolyl)-2-[3,4-(methylenedioxy)phenyl]benzo[b]thiophene-3-sulfonamide] are 52600 nM and 550 nM.
In the same order, the values of `Cc1noc(NS(=O)(=O)c2ccsc2Cc2ccc3c(c2)OCO3)c1Br` [N-(4-bromo-3-methyl-5-isoxazolyl)-2-[(3,4-methylenedioxy)benzyl]thiophene-3-sulfonamide] are 7700 nM and 270 nM.
On to `Cc1noc(NS(=O)(=O)c2ccsc2CC(c2ccc3c(c2)OCO3)N(C)C)c1Cl` (stereo not drawn) [N-(4-chloro-3-methyl-5-isoxazolyl)-2-[β-(dimethylamino)-3,4-(methylenedioxy)phenethy]thiophene-3-sulfonamide], for which the IC50 was around 100000 nM at human ETB receptor (setting [1]) and 20900 nM on human ETA receptors (setting [1]).
In the case of `Cc1noc(NS(=O)(=O)c2ccsc2C(=O)Nc2cc3c(cc2OCCO)OCO3)c1Cl` [N-(4-chloro-3-methyl-5-isoxazolyl)-2-[3,4-(methylenedioxy)-6-(2-hydroxyethoxy)phenylaminocarbonyl]thiophene-3-sulfonamide], the IC50 was around 18000 nM on human ETB receptor (setting [1]) and around 10 nM at human ETA receptors (setting [1]).
Taken in the same sequence, the figures for `Cc1cc(C)c(C=CCc2ccsc2S(=O)(=O)Nc2onc(C)c2Br)c(C)c1` [N-(4-bromo-3-methyl-5-isoxazolyl)-3-(2,4,6-trimethylcinnamyl)thiophene-2-sulfonamide] were 1860 nM and 49 nM.
On to `Cc1noc(NS(=O)(=O)c2c(C)sc3ccccc23)c1C` [N-(3,4-dimethyl-5-isoxazolyl)-2-methylbenzo[b]thiophene-3-sulfonamide], for which the IC50 at human ETB receptor (setting [2]) stood at 16600 nM; at human ETA receptors (setting [2]), 167 nM.
Consider `Cc1ccccc1OC(=O)c1sccc1S(=O)(=O)Nc1onc(C)c1Br` [N-(4-bromo-3-methyl-5-isoxazolyl)-2-[(2-methylphenoxy)carbonyl]thiophene-3-sulfonamide], for which the half-inhibitory concentration (IC50) on human ETB receptor (setting [1]) amounted to 105000 nM; on human ETA receptors (setting [1]), 684 nM.
In the same order, the values of `Cc1noc(NS(=O)(=O)c2ccsc2C(=O)Cc2cc3c(cc2C#N)OCO3)c1Cl` [N-(4-chloro-3-methyl-5-isoxazolyl)-2-[2-cyano-4,5-(methylenedioxy)phenylacetyl]thiophene-3-sulfonamide] are around 700 nM and around 300 nM.
Taken in the same sequence, the figures for `Cc1ccc(OCc2ccsc2S(=O)(=O)Nc2onc(C)c2Br)cc1` [N-(4-bromo-3-methyl-5-isoxazolyl)-3-[(4-methylphenoxy)methyl]thiophene-2-sulfonamide] were 22800 nM and 1640 nM.
With `Cc1ccc(-c2ccc(S(=O)(=O)Nc3noc(C)c3Br)s2)cc1` [N-(4-bromo-5-methyl-3-isoxazolyl)-5-(4-methylphenyl)thiophene-2-sulfonamide], the 50% inhibitory concentration (IC50) at human ETB receptor (setting [2]) amounted to 359 nM; at human ETB receptor (setting [1]) it was 250 nM; on human ETA receptors (setting [2]), 7100 nM; at human ETA receptors (setting [1]) it was 15800 nM.
Take `Cc1noc(NS(=O)(=O)c2ccsc2C(O)c2ccccc2)c1Br` (stereo not drawn) [N-(4-bromo-3-methyl-5-isoxazolyl)-2-(α-hydroxybenzyl)thiophene-3-sulfonamide]: the IC50 at human ETB receptor (setting [2]) turned out to be 9370 nM; at human ETA receptors (setting [2]), 337 nM.
In the case of `Cc1ccc(CCc2ccsc2S(=O)(=O)Nc2onc(C)c2Br)cc1` [N-(4-bromo-3-methyl-5-isoxazolyl)-3-(4-methylphenethyl)thiophene-2-sulfonamide], the half-inhibitory concentration (IC50) on human ETB receptor (setting [1]) turned out to be 9400 nM; at human ETA receptors (setting [1]), 347 nM.
